Data published in paper PMC10538209, “Ginsentide-like Coffeetides Isolated from Coffee Waste Are Cell-Penetrating and Metal-Binding Microproteins” (Molecules, 2023).
Positions of bridges follow the written chain, without caps; N, C: chain ends. Non-standard residues stand in square brackets, D forms with d. Residues, ends and D or L forms follow the SMILES beside them. pGlu = O=C1CC[C@@H](C(=O)O)N1

Legend:
[1] = Human serum-mediated stability; type: in vitro ADME; details: 25% human serum (AB-type) in DMEM, native cC1a, 25% human male serum (AB-type) in phenol red-free DMEM, 37 °C, ethanol precipitation, RP-UHPLC, read-out: coffeetide remained after treatment with human serum
Description: (§1) Figure 6 Stability assays of coffeetide cC1a. An amount of 200 µM coffeetide cC1a was subjected to (A) heat at 100 °C for 2 h, (B) acidic conditions in 1 M HCl (pH 2.0) for 2 h, (C) pepsin in 100 mM sodium citrate buffer (pH 2.5) for 6 h, (D) aminopeptidase I in 20 mM tricine for 6 h, and (E) human serum for 36 h. MALDI-TOF MS was used to characterize coffeetide cC1a and reversed-phase ultra-high pressure liquid chromatography was used to quantify cC1a in the treated samples to calculate the percentage of cC1a remaining intact.
Human serum-mediated stability: To assess stability in a biologically relevant context, purified 200 µg coffeetide cC1a was incubated with 25% human male serum (AB-type) in phenol red-free Dulbecco’s Modified Eagle Medium (DMEM) at 37 °C for 48 h. At defined time points (0 h, 12 h, 24 h, and 48 h), 50 µL of the samples were collected and treated with 100 µL of 95% ethanol to precipitate serum proteins. After incubation at 4 °C for 15 min and centrifugation at 13,000 rpm for 10 min, the extent of degradation was evaluated through RP-UHPLC chromatograms.

Thermal stability assay = type: physicochemical; details: native cC1a 200 µM; high heat (95 °C in text; 100 °C water bath in legend and method), 2 h; quenched in ice bath; RP-UHPLC quantification; triplicate
Description: as §1
(§2) Thermal and acidic stability: A solution of purified 200 µM coffeetide cC1a was subjected to rigorous conditions, including incubation at 100 °C in a water bath and exposure to 2 M hydrochloric acid for 2 h. The reactions were promptly quenched, either by placing the samples in an ice bath for 10 min or by adding 1 M sodium hydroxide at various time intervals (0, 30, 60, 90, 120 min). Subsequently, the treated samples were injected into RP-UHPLC to evaluate the presence of coffeetide cC1a and quantify any degradation. Each experiment was conducted in triplicate, and MALDI-TOF MS was employed to analyze the collected peaks.

Acidic stability assay = type: physicochemical; details: native cC1a 200 µM; acidic conditions (pH 2), 1 M HCl in legend, 2 M HCl in method, 2 h; quenched with 1 M NaOH; RP-UHPLC; triplicate
Description: as §1, §2

HeLa cells = experiment: MTT toxicity assay, HeLa; type: cell-based, human; details: 24 h treatment, concentrations up to 100 µM, MTT absorbance 550 nm, mean ± S.E.M. n = 3
Description: (§3) HeLa cells (human cervical cancer cells) and HUVEC-CS (human umbilical vein endothelial cells) were cultured in DMEM (Dulbecco’s Modified Eagle Medium) from Thermo Scientific, supplemented with 10% fetal bovine serum, 100 U/mL of penicillin, and streptomycin. Cell cultures were maintained in a 5% CO2 incubator at 37 °C.
(§4) To evaluate cell viability, a 3-(4,5-dimethylthiazolyl-2)-2,5-diphenyltetrazolium bromide (MTT) dye reduction assay was employed. In brief, HeLa and HUVEC-CS cells were subjected to treatment with either coffeetide cC1a or 0.1% Triton X-100 (utilized as a positive control) for a duration of 24 h. Following the incubation period, MTT was introduced to the cells to achieve a final concentration of 0.5 mg/mL and incubated for 3 h at 37 °C. The resulting insoluble formazan crystals were subsequently dissolved by the addition of dimethyl sulfoxide, and absorbance was measured at 550 nm using a microplate reader (Tecan Infinite® 200 Pro, Switzerland).

pepsin = system: T1, pepsin; experiment: Proteolytic stability, pepsin; type: in vitro ADME; details: native cC1a 200 µM, 4 mg/mL pepsin in 100 mM sodium citrate buffer pH 2.5, 37 °C, RP-UHPLC, read-out: coffeetide remained intact with pepsin
T1 construct: purchased Sigma Aldrich or Fisher Scientific (general statement only)
Description: as §1
(§5) Proteolytic stability: In this test, purified 200 µM coffeetide cC1a was exposed to 37 °C for 6 h in the presence of 4 mg/mL of pepsin in a 100 mM sodium citrate buffer (pH 2.5) or 20 U/mL of aminopeptidase I in 20 mM tricine and 0.05% bovine serum albumin (pH 8.0). The peptide-to-enzyme ratio (w/w) was maintained at either 20:1 or 50:1. At specific time intervals (0, 2, 4, and 6 h), 20 µL of each sample was injected into RP-UHPLC to monitor degradation.

HUVEC-CS cells = experiment: MTT toxicity assay, HUVEC-CS; type: cell-based, human; details: 24 h treatment, concentrations up to 100 µM, MTT absorbance 550 nm, mean ± S.E.M. n = 3
Description: as §3, §4

[2] = Isothermal titration calorimetry (ITC), Ca2+; type: binding; details: 200 µM metal ion titrated into cC1a, 10 mM Tris, 100 mM NaCl, pH 6.3
Description: (§6) Isothermal Titration Calorimetry (ITC) experiments were conducted at 298 K using the MicroCal PEAQ ITC system from Malvern Instruments Ltd., Malvern, UK. MgCl2, KCl, CaCl2, and FeCl3 were dissolved in a 10 mM Tris buffer containing 100 mM NaCl at a pH of 6.3. Similarly, coffeetide cC1a was prepared in the same buffer. In the initial set of experiments, 200 µM of these ions were incrementally titrated into cC1a, involving twenty 2.5 µL injections, while simultaneously measuring the heat changes. Additional experiments were conducted with higher concentrations of KCl, MgCl2, and FeCl3 interacting with cC1a. Specifically, 400 µM of KCl, MgCl2, and FeCl3 were titrated into a solution containing 40 µM of cC1a, utilizing twenty 2.5 µL injections, and monitoring the associated heat changes. Control experiments were conducted by titrating ions into a 10 mM Tris (pH 6.3) buffer containing 100 mM NaCl to account for heat changes resulting from dilution. The obtained titration curves were analyzed using MicroCal PEAQ-ITC analytics software (version 1.0.0.1259, Malvern Instruments Ltd.).

[3] = Isothermal titration calorimetry (ITC), Fe3+; details: 10 mM Tris, 100 mM NaCl, pH 6.3, 20 °C in text (298 K in method), synthetic cC1a, read-out: binding affinity (KD) to Fe^3+
Description: as §6

[4] = Isothermal titration calorimetry (ITC), K+; type: binding; details: 200 µM (also 400 µM) metal ion titrated into cC1a, 10 mM Tris, 100 mM NaCl, pH 6.3
Description: as §6

aminopeptidase I = system: T2, aminopeptidase I; experiment: Proteolytic stability, aminopeptidase I; type: in vitro ADME; details: native cC1a 200 µM, 20 U/mL aminopeptidase I in 20 mM tricine, 0.05% BSA, pH 8.0, 37 °C, RP-UHPLC, read-out: coffeetide remained intact with aminopeptidase
T2 construct: purchased Sigma Aldrich or Fisher Scientific (general statement only)
Description: as §1, §5

[5] = Isothermal titration calorimetry (ITC), Mg2+; details: 10 mM Tris, 100 mM NaCl, pH 6.3, 20 °C in text (298 K in method), synthetic cC1a, read-out: binding affinity (KD) to Mg^2+
Description: as §6

CC[C@H](C)[C@@H]1NC(=O)[C@@H]2CSSC[C@@H]3NC(=O)[C@@H]4CCCN4C(=O)[C@H](CCC(=O)O)NC(=O)CNC(=O)[C@H](CC(C)C)NC(=O)[C@@H]4CCCN4C(=O)[C@H](CO)NC(=O)[C@@H](NC(=O)[C@H](CCC(=O)O)NC(=O)CNC(=O)[C@H](CCC(=O)O)NC(=O)[C@@H]4CCC(=O)N4)CSSC[C@@H]4NC(=O)[C@H](CSSC[C@H](NC(=O)[C@H](CCCNC(=N)N)NC(=O)[C@H](CC(=O)O)NC(=O)[C@H]([C@@H](C)O)NC(=O)[C@H](CC(C)C)NC(=O)[C@H](CCC(N)=O)NC(=O)[C@H](Cc5c[nH]c6ccccc56)NC1=O)C(=O)N[C@@H](C(C)C)C(=O)NCC(=O)N[C@@H](CC(N)=O)C(=O)N[C@H](C(=O)O)CSSC[C@H](NC(=O)CNC(=O)[C@@H]1CCCN1C4=O)C(=O)N[C@@H]([C@@H](C)CC)C(=O)N2)NC(=O)CNC(=O)[C@H](Cc1c[nH]c2ccccc12)NC(=O)[C@@H]1CCCN1C(=O)[C@H](CC(N)=O)NC(=O)CNC(=O)[C@H](C)NC3=O [cC1a] ([pGlu]EGECSPLGEPCAGNPWGCCPGCICIWQLTDRCVGNC-OH; disulfide 5-20, 12-25, 19-33, 23-37)
remaining at 36 h, 200 µM [1]: > 85% | coffeetide remained intact under high heat (Thermal stability assay): > 88% | coffeetide remained intact under acidic conditions (Acidic stability assay): > 88% | cytotoxicity (MTT cell viability) (HeLa cells): not cytotoxic | remaining at 6 h, 200 µM (pepsin): > 90% | cytotoxicity (MTT cell viability) (HUVEC-CS cells): not cytotoxic | binding affinity to Ca^2+ [2]: does not display reproducible binding affinity | Kd [3]: 1670 ± 1800 nM | binding affinity to K^+ [4]: does not display reproducible binding affinity | remaining at 6 h, 200 µM (aminopeptidase I): > 90% | Kd [5]: 4190 ± 4790 nM
